# Measurements as given in patent publication EP0114908A1, “Finely pulverized 2,4-diamino-6-(2,5-dichlorophenyl)-1,3,5-triazine and pharmaceutically acceptable acid addition salts thereof” (NIPPON SHINYAKU COMPANY, LIMITED, priority 1983, dated 1984).
# Several values for one entry are separate records, joined by “and”; a condition that tells them apart may be missing. Equal entries are not always repeated. Where two headings read alike, the source gives them in different places.
# Key:
# Assay type in all cases: in vivo
# [1] = tested on: ulcer formation induced by stress; experiment: stress ulcer in rats, immobilization-water immersion method; conditions: for activity on ulcer formation induced by stress: orally; for Inhibition Rate / ED50: stress ulcer; for ED50: per os
# Source text: Since 50 microns is a common particle diameter in pharmaceutical preparations, it was most surprising that such significant and important advantages accrued according to the present invention. Inhibition activity against stress ulcer in rats of the compound and pharmaceutically acceptable acid additio salts in the finely pulverized form of the present invention are set forth in Table 2.
# male rats = experiment: toxicity on intraperitoneal injection (LD50); conditions: for LD50: injected intraperitoneally, male rats, limits given in brackets
# Source text: This decrease in toxicity is totally unexpected and represents a significant and important advance in the art.
# [2] = body weight increase inhibition on chronic oral administration; conditions: rats; compared with a maleate salt having an average particle diameter of about 50 microns
# Procedure: A further advantage results from body weight increase inhibition which is one of the main side effects of the compound and salts of the present invention. When 10 mg/kg or more per day of either the compound or maleate salt is chronically administered to rats orally, body weight increase is inhibited. This is a side effect of triazines of this type. […] However, when the compound or a pharmaceutically acceptable acid addition salt thereof according to the present invention having an average particle diameter of about 8 microns was administered, the appearance of the side effect was only transient and moderate and the recovery of body weight was far faster as compared to that occurring when the compound was administered having an average particle diameter of about 50 microns.
# The average particle sizes were 8 microns for the compound according to the present invention as compared to the same compound having an average particle diameter of 50 microns.
Structure (SMILES),activity on ulcer formation induced by stress ([1]; dosage of 5 mg/kg),"Inhibition Rate ([1]; 0.37 mg/kg per os, three values, 0.37 mg/kg)","Inhibition Rate ([1]; 3.72 mg/kg per os, three values, 3.72 mg/kg)",LD50 (male rats),LD50 (male rats; listed as the same compound having an average particle diameter of about 50 microns),improvement in body weight side effect [2],Inhibition Rate ([1]; 0.3 mg/kg),Inhibition Rate ([1]; 1.0 mg/kg),Inhibition Rate ([1]; 3.0 mg/kg),Inhibition Rate ([1]; 10 mg/kg),ED50 ([1]; determined from the data of Table 2),LD50 (male rats; listed as the maleate salt according to the present invention),"ED50 ([1]; Rattus norvegicus, po, determined from the data of Table 2, read-out: ED50)",activity on ulcer formation induced by stress ([1]; dosage of 1 mg/kg),Inhibition Rate ([1]; 30 mg/kg),"rats killed (male rats; intraperitoneal injection, dosages up to 3000 mg/kg)"
"Nc1nc(N)nc(-c2cc(Cl)ccc2Cl)n1 [2,4-diamino-6-(2,5-dichlorophenyl)-1,3,5-triazine]",ineffective,37% and 46% and 29%,62% and 47% and 33%,495 mg/kg,1740 mg/kg,–,–,–,–,–,–,–,–,–,–,–
"Nc1nc(N)nc(-c2cc(Cl)ccc2Cl)n1 [Substance (II), 2,4-diamino-6-(2,5-dichlorophenyl)-1,3,5-triazine]",–,–,–,–,–,particularly dramatic,35%,51%,70%,85%,0.90 mg/kg,835 mg/kg,–,–,–,–
"Nc1nc(N)nc(-c2cc(Cl)ccc2Cl)n1 [Substance (I), 2,4-diamino-6-(2,5-dichlorophenyl)-1,3,5-triazine]",–,–,–,–,–,–,33%,45%,63%,70%,–,–,1.22 mg/kg,effective,85%,no rats were killed
